Assay results from patent US7368470B2, “Substituted 3-pyrrolidine-indole derivatives” (Gruenenthal GmbH, priority 2003, dated 2008).

Key:
[1] = target: T1, serotonin reuptake (5HT uptake) (Rattus norvegicus, UniProt P31652); test: Serotonin reuptake inhibition (5HT uptake inhibition) in rat brain synaptosomes; type: biochemical; conditions: synaptosomes from male rats' brains
T1 construct: These vesicular particles were isolated from the hypothalamus of male rats' brains for 5HT uptake; from tissue; host or cells: rat brain synaptosomes (P2 fraction; cerebral cortex / hypothalamus of male rats)
T1 sequence (P31652 whole entry): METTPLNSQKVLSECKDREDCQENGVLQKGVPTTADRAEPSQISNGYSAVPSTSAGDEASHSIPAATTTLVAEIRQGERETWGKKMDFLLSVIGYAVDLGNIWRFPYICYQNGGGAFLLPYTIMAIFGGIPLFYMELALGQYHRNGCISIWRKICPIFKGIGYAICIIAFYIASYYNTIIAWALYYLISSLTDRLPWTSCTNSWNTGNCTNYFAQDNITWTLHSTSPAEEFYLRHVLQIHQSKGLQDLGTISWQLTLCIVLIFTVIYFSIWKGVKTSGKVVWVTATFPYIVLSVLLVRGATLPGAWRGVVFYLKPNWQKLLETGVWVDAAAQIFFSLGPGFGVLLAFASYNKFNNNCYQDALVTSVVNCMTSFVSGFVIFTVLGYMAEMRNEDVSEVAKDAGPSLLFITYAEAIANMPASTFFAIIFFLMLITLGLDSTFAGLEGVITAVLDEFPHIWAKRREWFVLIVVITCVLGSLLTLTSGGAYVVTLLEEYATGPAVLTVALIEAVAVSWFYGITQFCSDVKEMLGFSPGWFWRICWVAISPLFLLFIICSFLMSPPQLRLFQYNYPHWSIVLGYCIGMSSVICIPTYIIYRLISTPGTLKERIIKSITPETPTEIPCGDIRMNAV
Text: a) Tests on Serotonin Reuptake Inhibition
In order to be able to carry out these in vitro studies, synaptosomes from rats' cerebral cortices were freshly isolated. A “P2” fraction prepared according to Gray and Whittaker's instructions (E. G. Gray and V. P. Whittaker (1962) J. Anat. 76, 79-88) was used in each case. These vesicular particles were isolated from the hypothalamus of male rats' brains for 5HT uptake.
A detailed description of the method may be found in the literature (M. Ch. Frink, H.-H. Hennies, W. Englberger, M. Haurand and B. Wilffert (1996) Arzneim.-Forsch./Drug Res. 46 (III), 11, 1029-1036).

[2] = target: T2, noradrenalin reuptake (NA uptake) (Rattus norvegicus, UniProt Q9WTR4); test: Noradrenalin reuptake inhibition (NA uptake inhibition) in rat brain synaptosomes; type: biochemical; conditions: synaptosomes from male rats' brains
T2 construct: These vesicular particles were isolated from the hypothalamus of male rats' brains for NA uptake; from tissue; host or cells: rat brain synaptosomes (P2 fraction; cerebral cortex / hypothalamus of male rats)
T2 sequence (Q9WTR4 1-597): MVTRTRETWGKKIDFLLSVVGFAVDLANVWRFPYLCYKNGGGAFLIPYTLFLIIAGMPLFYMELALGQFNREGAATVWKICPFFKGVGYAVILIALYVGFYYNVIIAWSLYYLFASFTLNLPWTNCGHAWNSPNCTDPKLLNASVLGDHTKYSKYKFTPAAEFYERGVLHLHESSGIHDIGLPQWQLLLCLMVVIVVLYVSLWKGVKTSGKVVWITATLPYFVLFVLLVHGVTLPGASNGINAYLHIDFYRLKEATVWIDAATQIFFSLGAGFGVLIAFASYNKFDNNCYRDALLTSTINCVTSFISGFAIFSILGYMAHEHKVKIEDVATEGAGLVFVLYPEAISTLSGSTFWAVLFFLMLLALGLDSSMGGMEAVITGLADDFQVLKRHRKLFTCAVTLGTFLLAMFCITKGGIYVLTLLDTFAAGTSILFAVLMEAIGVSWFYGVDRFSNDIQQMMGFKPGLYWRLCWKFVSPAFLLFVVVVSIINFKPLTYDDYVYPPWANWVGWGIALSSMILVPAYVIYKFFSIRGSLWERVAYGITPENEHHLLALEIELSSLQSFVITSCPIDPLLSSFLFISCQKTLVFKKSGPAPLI
Text: b) Tests on Noradrenalin Reuptake Inhibition
In order to be able to carry out these in vitro studies, synaptosomes from rats' cerebral cortices were freshly isolated. A “P2” fraction, prepared according to Gray and Whittaker's instructions (E. G. Gray and V. P. Whittaker (1962) J. Anat. 76, 79-88) was used in each case. These vesicular particles were isolated from the hypothalamus of male rats' brains for NA uptake.
A detailed description of the method may be found in the literature (M. Ch. Frink, H.-H. Hennies, W. Englberger, M. Haurand and B. Wilffert (1996) Arzneim.-Frosch./Drug Res. 46 (III), 11, 1029-1036).

[3] = test system: binding site 2 of the sodium channel (batrachotoxin (BTX) binding site); test: Binding test on the sodium channel, binding site 2 (BTX bond), [3H]-batrachotoxinin A20 α-benzoate as ligand; parameters: species or system rat; conditions: 10 μM; rat cerebrocortex synaptosomes; ligand 10 nM; 25° C., 120 min

SMILES	inhibition at 10 µM [1]	inhibition at 10 µM [2]	BTX bond, % inhibition [10 μM] [3]	5HT uptake, % inhibition [10 μM] [1]	NA-uptake, inhibition [10 μM] [2]
N#Cc1ccc(Cn2cc(C3CCN(C(=O)c4ccc5nonc5c4)C3)c3ccccc32)cc1 (stereo not drawn) [Compound 34, 4-{3-[1-(benzo[1,2,5]oxadiazole-5-carbonyl)-pyrrolidin-3-yl]-indol-1-ylmethyl}-benzonitrile]	57%	49%	91%	–	–
CCn1cc(C2CCN(C(=O)CCc3ccccc3)C2)c2ccccc21 (stereo not drawn) [Compound 35, 1-[3-(1-ethyl-1H-indol-3-yl)-pyrrolidin-1-yl]-3-phenyl-propan-1-one]	68%	48%	84%	–	–
O=C(c1ccc([N+](=O)[O-])cc1Cl)N1CCC(c2cn(Cc3ccc(C(F)(F)F)cc3)c3ccccc23)C1 (stereo not drawn) [Compound 39]	–	–	90%	43%	41
Cc1nc(C(F)(F)F)ccc1C(=O)N1CCC(c2cn(Cc3cccc(F)c3)c3ccccc23)C1 (stereo not drawn) [Compound 42, {3-[1-(3-fluoro-benzyl)-1H-indol-3-yl]-pyrrolidin-1-yl}-(2-methyl-6-trifluoromethyl-pyridin-3-yl)-methanone]	82%	58%	96%	–	–
Cn1cc(C2CCN(C(=O)c3ccc(-c4ccccc4)cc3)C2)c2ccccc21 (stereo not drawn) [Compound 45, Biphenyl-4-yl-[3-(1-methyl-1H-indol-3-yl)-pyrrolidin-1-yl]-methanone]	80%	43%	82%	–	–
COc1cccc(Cn2cc(C3CCN(C(=O)Cc4ccc(Cl)cc4)C3)c3ccccc32)c1 (stereo not drawn) [Compound 46, 2-(4-chloro-phenyl)-1-{3-[1-(3-methoxy-benzyl)-1H-indol-3-yl]-pyrrolidin-1-yl}-ethanone]	46%	20%	88%	–	–
